What was measured:
[1] = target: T1, Receptor-interacting serine/threonine-protein kinase 1 (Homo sapiens, UniProt Q13546); test: Inhibition of RIPK1 (unknown origin)
T1 sequence (Q13546 whole entry): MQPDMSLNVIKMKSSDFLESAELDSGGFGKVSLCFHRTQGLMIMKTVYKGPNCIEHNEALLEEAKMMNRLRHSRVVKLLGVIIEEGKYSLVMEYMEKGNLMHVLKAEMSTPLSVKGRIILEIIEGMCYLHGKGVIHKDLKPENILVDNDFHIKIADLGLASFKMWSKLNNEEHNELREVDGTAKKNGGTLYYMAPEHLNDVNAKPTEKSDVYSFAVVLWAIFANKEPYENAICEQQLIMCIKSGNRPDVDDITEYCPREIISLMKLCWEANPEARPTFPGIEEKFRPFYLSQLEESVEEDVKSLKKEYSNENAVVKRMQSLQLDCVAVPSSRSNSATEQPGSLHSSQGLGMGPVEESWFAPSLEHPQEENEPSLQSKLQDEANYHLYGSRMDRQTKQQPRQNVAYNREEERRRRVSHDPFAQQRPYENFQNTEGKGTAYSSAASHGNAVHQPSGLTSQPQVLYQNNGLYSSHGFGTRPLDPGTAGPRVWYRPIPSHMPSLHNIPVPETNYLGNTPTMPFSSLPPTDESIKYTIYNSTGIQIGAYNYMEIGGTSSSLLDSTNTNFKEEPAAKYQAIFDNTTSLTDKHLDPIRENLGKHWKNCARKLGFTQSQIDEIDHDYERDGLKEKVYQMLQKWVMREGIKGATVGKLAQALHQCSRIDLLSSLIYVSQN

HT-29 = test: Anti-neprotic activity in human HT-29 cells assessed as reduction in TSZ-induced necroptosis incubated for 24 hrs by cell titer glo-based luminescence assay; assay type: functional; details: HT-29, 24 h
[2] = target: T2, Receptor-interacting serine/threonine-protein kinase 1 (Homo sapiens) (UniProt Q13546)
T2 sequence (whole entry): T1 sequence (Q13546 whole entry)

[3] = target: T3, Mixed lineage kinase domain-like protein (Homo sapiens) (UniProt Q8NB16)
T3 sequence (whole entry): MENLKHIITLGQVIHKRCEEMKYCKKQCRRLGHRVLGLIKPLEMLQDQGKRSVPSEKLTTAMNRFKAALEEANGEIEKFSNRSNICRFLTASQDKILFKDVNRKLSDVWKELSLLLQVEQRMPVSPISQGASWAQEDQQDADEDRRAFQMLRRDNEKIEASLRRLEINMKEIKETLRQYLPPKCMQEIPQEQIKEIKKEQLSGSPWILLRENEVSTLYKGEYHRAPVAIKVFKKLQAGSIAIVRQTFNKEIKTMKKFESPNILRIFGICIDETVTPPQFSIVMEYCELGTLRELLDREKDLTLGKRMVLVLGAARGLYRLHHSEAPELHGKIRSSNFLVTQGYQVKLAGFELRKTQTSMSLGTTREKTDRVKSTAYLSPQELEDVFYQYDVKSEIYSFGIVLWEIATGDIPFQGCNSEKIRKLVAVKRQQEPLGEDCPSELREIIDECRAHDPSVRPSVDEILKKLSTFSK

Jurkat = test: Anti-neprotic activity in human Jurkat cells FADD defient assessed as reduction in TNFalpha-induced necroptosis preincubated for 30 mins followed by addition of TNFalpha-stimulation and further incubated for over night by Cell Titer Glo assay; assay type: functional, cell-based
[4] = target: T4, Receptor-interacting serine/threonine-protein kinase 3 (Homo sapiens, UniProt Q9Y572); test: Inhibition of human full length N-terminal GST-tagged RIPK3 expressed in baculovirus infected sf9 insect cells assessed as reduction in MBP phosphorylation using MBP as substrate by kinase-Glo luminescence assay
[5] = target: T5, Dual serine/threonine and tyrosine protein kinase (Homo sapiens, UniProt Q6XUX3); test: Inhibition of human RIPK5 using MBP as substrate by [gamma33-ATP] based radiometric assay
T5 sequence (Q6XUX3 whole entry): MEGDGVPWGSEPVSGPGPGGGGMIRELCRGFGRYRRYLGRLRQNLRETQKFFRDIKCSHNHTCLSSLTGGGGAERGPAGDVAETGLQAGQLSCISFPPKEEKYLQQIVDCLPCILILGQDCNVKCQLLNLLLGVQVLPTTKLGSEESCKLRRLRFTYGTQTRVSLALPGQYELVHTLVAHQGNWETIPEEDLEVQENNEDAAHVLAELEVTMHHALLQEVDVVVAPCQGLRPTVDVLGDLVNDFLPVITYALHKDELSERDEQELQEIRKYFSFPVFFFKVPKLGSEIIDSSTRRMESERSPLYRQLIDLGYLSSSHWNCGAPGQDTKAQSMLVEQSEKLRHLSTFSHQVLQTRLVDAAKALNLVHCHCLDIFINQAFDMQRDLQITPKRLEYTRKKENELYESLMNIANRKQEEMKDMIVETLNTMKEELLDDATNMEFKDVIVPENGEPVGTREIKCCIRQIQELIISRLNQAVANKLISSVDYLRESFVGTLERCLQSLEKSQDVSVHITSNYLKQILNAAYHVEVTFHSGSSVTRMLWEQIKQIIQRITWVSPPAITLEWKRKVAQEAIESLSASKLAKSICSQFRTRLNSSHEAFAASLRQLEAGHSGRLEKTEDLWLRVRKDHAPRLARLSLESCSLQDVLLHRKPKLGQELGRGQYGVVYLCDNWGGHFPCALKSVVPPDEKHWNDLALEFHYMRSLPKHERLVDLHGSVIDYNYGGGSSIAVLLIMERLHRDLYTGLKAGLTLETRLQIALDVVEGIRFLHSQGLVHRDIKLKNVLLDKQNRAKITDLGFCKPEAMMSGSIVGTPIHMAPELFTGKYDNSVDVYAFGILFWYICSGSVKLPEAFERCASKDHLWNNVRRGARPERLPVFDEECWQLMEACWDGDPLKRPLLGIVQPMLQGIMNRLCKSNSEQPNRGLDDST

[6] = target: T6, Receptor-interacting serine/threonine-protein kinase 2 (Homo sapiens, UniProt O43353); test: Inhibition of human RIPK2 using MBP as substrate by [gamma33-ATP] based radiometric assay
[7] = target: T1, Receptor-interacting serine/threonine-protein kinase 1; test: Inhibition of human RIPK1 using MBP as substrate by [gamma33-ATP] based radiometric assay
[8] = target: T4, Receptor-interacting serine/threonine-protein kinase 3; test: Inhibition of human RIPK3 using MBP as substrate by [gamma33-ATP] based radiometric assay
MEF = test: Anti-neprotic activity in mouse MEF cells assessed as reduction in TNF-induced necroptosis and measured every 1 hr in presence of z-VAD by SYTOX Green dye based fluorescence assay; assay type: functional, cell-based
Mus musculus [9] = test: Antiinflammatory Activity in C57BL/6 mouse TNFalpha-induced mouse model of SIRS assessed as reduction in TNF-induced body temperature at 0.124 mg/kg, iv pretreated for 15 mins followed by TNFalpha-stimulation and measured up to 4 days by thermometric method relative to control; assay type: functional; design: scale not given: the % may be the effect or the level left
L929 = test: Anti-neprotic activity in mouse L929 cells assessed as reduction in TNF-induced necroptosis and measured every 1 hr by SYTOX Green dye based fluorescence assay; assay type: functional, cell-based; details: L929, 1 h
[10] = target: T1, Receptor-interacting serine/threonine-protein kinase 1; test: Inhibition of recombinant human GST-tagged RIPK1 (1 to 479 residues) incubated for 4 hrs by ADP-Glo assay
[11] = target: T7, Indoleamine 2,3-dioxygenase 1 (Homo sapiens, UniProt P14902); test: Inhibition of recombinant human IDO using L-Trp as substrate incubated for 60 mins
Fibroblast = test: Anti-neprotic activity in mouse fibroblasts cells; assay type: functional, cell-based
[12] = target: T1, Receptor-interacting serine/threonine-protein kinase 1; test: Inhibition of human RIPK1 by ADP-Glo assay
[13] = target: T1, Receptor-interacting serine/threonine-protein kinase 1; test: Inhibition of GSK657 binding to human RIPK1 (1 to 328) by fluorescence Polarization assay
[14] = target: T6, Receptor-interacting serine/threonine-protein kinase 2; test: Inhibition of recombinant human His-tagged RIPK2 (8 to 317 residues) incubated for 1 hr by ADP-Glo assay
[15] = target: Tyrosine-protein kinase ABL1 (Homo sapiens, UniProt P00519); test: Inhibition of Abl (unknown origin) incubated for 1 hr by ADP-Glo assay
Mus musculus [16] = test: Antiinflammatory activity in TNF-induced mouse model of SIRS assessed as reduction in TNF-induced body temperature at 5 mg/kg, po and measured after 2 to 4 hrs by infrared ear Thermometric method relative to control; assay type: functional; design: scale not given: the % may be the effect or the level left
[17] = target: T8, Receptor-interacting serine/threonine-protein kinase 1 (Mus musculus, UniProt Q60855); test: Inhibition of mouse RIPK1; details: read-out: Ki(app)
T8 sequence (Q60855 whole entry): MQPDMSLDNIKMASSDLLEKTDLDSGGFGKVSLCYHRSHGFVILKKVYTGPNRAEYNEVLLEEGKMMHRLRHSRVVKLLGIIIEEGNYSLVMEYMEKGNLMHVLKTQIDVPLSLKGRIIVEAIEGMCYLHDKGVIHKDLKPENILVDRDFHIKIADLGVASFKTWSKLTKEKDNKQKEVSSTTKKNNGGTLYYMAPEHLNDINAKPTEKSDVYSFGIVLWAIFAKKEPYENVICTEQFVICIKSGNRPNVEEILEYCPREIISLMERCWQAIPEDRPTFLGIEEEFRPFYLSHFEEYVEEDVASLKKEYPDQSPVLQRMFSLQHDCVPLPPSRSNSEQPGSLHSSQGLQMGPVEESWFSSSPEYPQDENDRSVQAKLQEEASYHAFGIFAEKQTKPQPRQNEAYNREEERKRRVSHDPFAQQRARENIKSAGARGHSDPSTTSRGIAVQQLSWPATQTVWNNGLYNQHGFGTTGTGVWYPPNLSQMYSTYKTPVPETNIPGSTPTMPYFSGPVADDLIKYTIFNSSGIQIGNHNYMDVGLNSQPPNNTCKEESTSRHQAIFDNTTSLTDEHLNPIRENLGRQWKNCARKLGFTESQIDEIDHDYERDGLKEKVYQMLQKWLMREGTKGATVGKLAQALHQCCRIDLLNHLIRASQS

[18] = target: T7, Indoleamine 2,3-dioxygenase 1; test: Inhibition of IDO (unknown origin)
Mus musculus [19] = test: Antiinflammatory Activity in C57BL/6 mouse TNFalpha-induced mouse model of SIRS assessed as reduction in TNF-induced body temperature at 0.226 mg/kg, iv pretreated for 15 mins followed by TNFalpha-stimulation and measured up to 4 days by thermometric method relative to control; assay type: functional; design: scale not given: the % may be the effect or the level left
[20] = target: T4, Receptor-interacting serine/threonine-protein kinase 3; test: Inhibition of recombinant RIPK3 (unknown origin) using MBP as substrate preincubated for 15 mins followed by addition of MBP and measured after 120 min ADP-Glo kinase assay
Mus musculus [21] = test: Antiinflammatory Activity in C57BL/6 mouse TNFalpha-induced mouse model of SIRS at 30 mg/kg, ip pretreated for 15 mins followed by TNFalpha-stimulation and measured after 72 hrs relative to control; assay type: functional

T4 sequence (Q9Y572 whole entry): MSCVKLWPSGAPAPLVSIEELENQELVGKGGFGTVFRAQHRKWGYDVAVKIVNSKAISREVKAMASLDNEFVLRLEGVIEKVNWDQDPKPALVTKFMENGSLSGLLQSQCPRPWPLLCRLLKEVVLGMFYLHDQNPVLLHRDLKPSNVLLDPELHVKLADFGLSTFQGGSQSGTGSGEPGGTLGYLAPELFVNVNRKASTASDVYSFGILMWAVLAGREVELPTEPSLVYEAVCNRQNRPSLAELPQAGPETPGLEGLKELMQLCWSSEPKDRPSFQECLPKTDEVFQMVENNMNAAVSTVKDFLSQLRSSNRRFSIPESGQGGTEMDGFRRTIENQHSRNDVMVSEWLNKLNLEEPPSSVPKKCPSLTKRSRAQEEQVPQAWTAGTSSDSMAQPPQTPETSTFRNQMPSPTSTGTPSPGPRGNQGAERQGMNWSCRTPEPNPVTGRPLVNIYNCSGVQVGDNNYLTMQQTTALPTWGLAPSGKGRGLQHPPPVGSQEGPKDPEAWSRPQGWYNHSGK
T7 sequence (P14902 whole entry): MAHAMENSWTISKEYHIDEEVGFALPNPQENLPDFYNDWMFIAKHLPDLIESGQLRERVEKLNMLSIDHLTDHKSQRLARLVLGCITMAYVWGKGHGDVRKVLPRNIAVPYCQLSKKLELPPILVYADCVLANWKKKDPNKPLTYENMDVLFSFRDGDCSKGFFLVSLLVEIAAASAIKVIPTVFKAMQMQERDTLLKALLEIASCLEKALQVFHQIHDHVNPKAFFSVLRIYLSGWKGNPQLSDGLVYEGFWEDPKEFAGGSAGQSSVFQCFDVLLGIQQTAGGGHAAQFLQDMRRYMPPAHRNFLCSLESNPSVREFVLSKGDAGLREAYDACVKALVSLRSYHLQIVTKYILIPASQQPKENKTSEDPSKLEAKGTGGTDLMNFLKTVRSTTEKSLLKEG
T6 sequence (O43353 whole entry): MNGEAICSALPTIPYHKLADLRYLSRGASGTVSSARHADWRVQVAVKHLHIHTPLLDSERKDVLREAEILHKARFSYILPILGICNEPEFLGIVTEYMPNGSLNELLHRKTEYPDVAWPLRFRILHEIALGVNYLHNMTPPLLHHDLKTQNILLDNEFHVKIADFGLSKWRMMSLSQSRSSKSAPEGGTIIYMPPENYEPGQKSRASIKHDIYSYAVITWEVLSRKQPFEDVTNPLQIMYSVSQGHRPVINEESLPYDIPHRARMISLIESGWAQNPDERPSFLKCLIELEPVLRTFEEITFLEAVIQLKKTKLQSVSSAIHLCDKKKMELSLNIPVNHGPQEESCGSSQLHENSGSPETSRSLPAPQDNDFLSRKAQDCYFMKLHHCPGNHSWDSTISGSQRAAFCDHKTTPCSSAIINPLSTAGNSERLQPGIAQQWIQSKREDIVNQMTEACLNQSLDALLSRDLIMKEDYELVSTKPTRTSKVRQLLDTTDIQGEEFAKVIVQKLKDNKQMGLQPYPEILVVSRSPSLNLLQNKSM
Chain of Tyrosine-protein kinase ABL1 (P00519 whole entry): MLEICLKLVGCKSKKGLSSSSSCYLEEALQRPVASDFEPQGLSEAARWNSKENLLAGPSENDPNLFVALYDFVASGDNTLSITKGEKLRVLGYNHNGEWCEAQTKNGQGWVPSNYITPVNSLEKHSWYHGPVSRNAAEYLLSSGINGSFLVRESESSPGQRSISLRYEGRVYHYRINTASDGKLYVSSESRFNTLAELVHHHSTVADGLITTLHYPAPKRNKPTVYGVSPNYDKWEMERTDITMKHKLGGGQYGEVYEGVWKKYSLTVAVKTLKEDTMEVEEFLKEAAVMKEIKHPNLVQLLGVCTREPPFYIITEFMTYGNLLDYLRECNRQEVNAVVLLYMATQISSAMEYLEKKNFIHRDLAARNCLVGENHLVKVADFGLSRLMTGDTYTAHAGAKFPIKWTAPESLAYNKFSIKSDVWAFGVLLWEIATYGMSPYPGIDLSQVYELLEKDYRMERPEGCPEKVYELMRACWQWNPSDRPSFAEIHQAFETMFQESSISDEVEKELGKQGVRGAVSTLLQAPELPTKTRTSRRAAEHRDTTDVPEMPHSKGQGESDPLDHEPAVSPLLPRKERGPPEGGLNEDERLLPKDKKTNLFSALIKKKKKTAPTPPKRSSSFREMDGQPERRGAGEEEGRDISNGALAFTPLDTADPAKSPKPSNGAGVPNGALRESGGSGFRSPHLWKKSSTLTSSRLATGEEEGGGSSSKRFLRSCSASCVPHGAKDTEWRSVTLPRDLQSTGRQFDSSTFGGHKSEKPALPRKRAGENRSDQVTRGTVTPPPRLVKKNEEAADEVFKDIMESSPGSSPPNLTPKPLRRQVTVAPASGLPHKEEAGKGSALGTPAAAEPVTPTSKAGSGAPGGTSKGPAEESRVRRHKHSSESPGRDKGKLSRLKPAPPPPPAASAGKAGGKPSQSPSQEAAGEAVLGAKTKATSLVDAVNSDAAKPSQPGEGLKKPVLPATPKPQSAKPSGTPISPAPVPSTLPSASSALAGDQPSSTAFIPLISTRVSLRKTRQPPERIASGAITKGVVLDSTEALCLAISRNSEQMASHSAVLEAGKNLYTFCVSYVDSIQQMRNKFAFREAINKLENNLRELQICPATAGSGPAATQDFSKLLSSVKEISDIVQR

Compound `Cc1ccc(O)cc1Nc1ccnc2cc(-c3ccccn3)ccc12` has an IC50 [1] of 73.6 nM.
Compound `Cn1c(=O)c2c(nc(S(C)(=O)=O)n2C)n(CC#Cc2cccc(O)c2)c1=O` has an IC50 (HT-29) of 2 nM.
In the case of `C[C@@H](Oc1cc(-c2cnn(C3CCNCC3)c2)cnc1N)c1c(Cl)ccc(F)c1Cl` [CRIZOTINIB], the ΔTm [2] is reported as 0.75 °C, the ΔTm [3] is reported as 5.63 °C and the IC50 (Jurkat) is reported as over 40000 nM.
For `CC(C)(C)c1nc(-c2cccc(NS(=O)(=O)c3c(F)cccc3F)c2F)c(-c2ccnc(N)n2)s1` [DABRAFENIB], the IC50 [4] was 250 nM, the IC50 [5] was 29400 nM and the IC50 [6] was 77 nM. It also gave an IC50 [7] of 53200 nM and an IC50 [8] of 2 nM.
`Cn1cc(-c2ccc3c(c2F)CCN3C(=O)Cc2cccc(C(F)(F)F)n2)c2c(N)ncnc21` showed an IC50 (MEF) of 4 nM, an Activity (Mus musculus [9]) of 100% and an IC50 (L929) of 0.1 nM. It also gave an IC50 [10] of 69 nM.
In the case of `O=C1NC(=S)NC1Cc1c[nH]c2ccccc12` (centres undefined), the IC50 [11] is reported as 110 nM.
`Cn1c(=O)c2c(nc(S(C)(=O)=O)n2C)n(C)c1=O` gave an IC50 (HT-29) of 390 nM.
`CN(c1ccc(NC(=O)Nc2ccc(OC(F)(F)F)cc2)cc1)c1ccnc(Nc2cccc(S(N)(=O)=O)c2)n1` [GW806742X] was tested, and the IC50 (Fibroblast) was under 50 nM.
`Cc1cc(-c2cnc(N)c3c(-c4ccc5scnc5c4)csc23)n(C)n1` was tested, and the IC50 [12] was 6.5 nM and the IC50 [13] was 8.6 nM.
In the case of `Nc1nccnc1C(=O)O[C@@H](C(=O)Nc1ccc(F)cc1)c1ccccc1`, the ΔTm [2] is reported as -0.15 °C and the IC50 (Jurkat) is reported as over 40000 nM.
`CNC(=O)c1ccc2c(c1)ncn2-c1ccc(CC(=O)OC(C)(C)C)cc1` gave an IC50 [12] of 0.3 nM and an IC50 [13] of 0.9 nM.
With `Cc1ccc(CCCCN2C(=O)N[C@H](Cc3c[nH]c4c(Cl)cccc34)C2=O)cc1C#Cc1cnc2cccnn12` the IC50 [14] was 1190 nM and the IC50 [15] was over 1000 nM.
Compound `COc1ccc2c(c1)CC[C@H](NC(=O)c1nc3n(n1)[C@H](c1ccccc1)CC3)C(=O)N2C` has an Activity (Mus musculus [16]) of 100% and a Ki [17] of 189 nM.
Work on `CN1C(=O)C(Cc2c[nH]c3ccccc23)NC1=S` (centres undefined) [NECROSTATIN] yielded an IC50 [11] of 110 nM and an IC50 [18] of 100000 nM.
Compound `Cn1cc(-c2ccc3c(c2)CCN3C(=O)Cc2cccc(C(F)(F)F)c2)c2c(N)ncnc21` has an Activity (Mus musculus [19]) of 100% and an IC50 (L929) of 0.4 nM.
Work on `CC(=O)Nc1nc2ccc(-c3cnc(Cl)c(CC(=O)Cc4ccccc4)c3)cc2s1` yielded an IC50 [20] of over 1000 nM and an Activity (Mus musculus [21]) of 90%.
With `COc1nccnc1NS(=O)(=O)c1ccc(NC(=O)/C=C/c2ccc([N+](=O)[O-])s2)cc1` the IC50 (HT-29) was under 200 nM.

Source: ChEMBL document CHEMBL4376828, “Small-Molecule Inhibitors of Necroptosis: Current Status and Perspectives” (J Med Chem, 2020)
